pIC50: −log10 of the molar value.
Molecular target: T1, Polyunsaturated fatty acid 5-lipoxygenase (Homo sapiens, UniProt P09917)
T1 sequence (P09917 whole entry): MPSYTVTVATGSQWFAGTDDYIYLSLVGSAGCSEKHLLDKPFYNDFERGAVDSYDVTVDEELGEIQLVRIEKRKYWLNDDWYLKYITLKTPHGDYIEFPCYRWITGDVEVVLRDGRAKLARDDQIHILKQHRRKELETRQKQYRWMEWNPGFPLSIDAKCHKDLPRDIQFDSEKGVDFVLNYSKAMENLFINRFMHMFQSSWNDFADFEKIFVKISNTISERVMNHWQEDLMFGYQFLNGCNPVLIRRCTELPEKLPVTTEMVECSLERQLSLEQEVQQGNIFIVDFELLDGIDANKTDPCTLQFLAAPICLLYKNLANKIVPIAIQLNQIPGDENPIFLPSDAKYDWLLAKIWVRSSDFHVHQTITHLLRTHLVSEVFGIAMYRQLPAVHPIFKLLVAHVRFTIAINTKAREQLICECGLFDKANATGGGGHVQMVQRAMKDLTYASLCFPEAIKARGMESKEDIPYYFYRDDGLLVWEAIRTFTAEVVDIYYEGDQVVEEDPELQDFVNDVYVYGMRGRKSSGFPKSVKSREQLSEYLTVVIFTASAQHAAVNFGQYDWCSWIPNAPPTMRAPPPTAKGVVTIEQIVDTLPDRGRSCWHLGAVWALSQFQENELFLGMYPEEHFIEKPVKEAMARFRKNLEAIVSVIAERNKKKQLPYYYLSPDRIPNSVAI
Assay: The compound was tested in vitro for inhibition against 5-lipoxygenase in intact human neutrophils

Row | SMILES | pIC50
1 | CC(/C=C/c1cccc(Oc2ccc(F)cc2)c1)N(O)C(N)=O (stereo not drawn) | 7.10
2 | NC(=O)N(O)[C@H]1C[C@@H](c2cccc(Oc3ccc(F)cc3)c2)C1 | 6.77
3 | NC(=O)N(O)[C@H]1C[C@H](c2cc3ccccc3s2)C1 | 6.42
